Measurements from patent US20100267561A1, “HERBICIDAL PYRIDAZINONE DERIVATIVES” (priority 2007, published 2010).

Experiments:
Assay type in all cases: in vivo
[1] = tested on: goosegrass (Eleusine indica); experiment: Test E pre-/postemergence plant response; settings: scale 0 to 100
Description: (§1) Seeds of plant species selected from bermudagrass (Cynodon dactylon), Surinam grass (Brachiaria decumbens), large crabgrass (Digitaria sanguinalis), green foxtail (Setaria viridis), goosegrass (Eleusine indica), johnsongrass (Sorghum halepense), kochia (Kochia scoparia), pitted morningglory (Ipomoea lacunosa), purple nutsedge (Cyperus rotundus), common ragweed (Ambrosia elation), black mustard (Brassica nigra), guineagrass (Panicum maximum), dallisgrass (Paspalum dilatatum), barnyardgrass (Echinochloa crus-galli), southern (S.) sandbur (Cenchrus echinatus), common sowthistle (Sonchus oleraceous), prickly sida (Sida spinosa), Italian ryegrass (Lolium multiflorum), common purslane (Portulaca oleracea), broadleaf signalgrass (Brachiaria platyphylla), common groundsel (Senecio vulgaris), common chickweed (Stellaria media), Virginia (V.) dayflower (Commelina virginica), tropical (T.) spiderwort (Commelina benghalensis), annual bluegrass (Poa annua), naked crabgrass (Digitaria nuda), itchgrass (Rottboellia cochinchinensis), quackgrass (Elytrigia repens), Canada horseweed (Conyza canadensis), field bindweed (Convolvulus arvensis), spanishneedles (Bidens bipinnata), common mallow (Malva sylvestris) and Russian thistle (Salsola kali) were planted and treated preemergence with test chemicals formulated in a non-phytotoxic solvent mixture which included a surfactant. At the same time, plants selected from these weed species were treated with postemergence applications of some of the test chemicals formulated in the same manner. Plants ranged in height from 2 to 18 cm (1- to 4-leaf stage) for postemergence treatments.
(§2) Treated plants and controls were maintained in a greenhouse for 14 to 21 days, after which time all species were compared to controls and visually evaluated. Plant response ratings, summarized in Table E, are based on a scale of 0 to 100 where 0 is no effect and 100 is complete control. A dash (-) response means no test result.

[2] = tested on: annual bluegrass (Poa annua); experiment: Test E pre-/postemergence plant response; settings: scale 0 to 100
Description: as §1, §2

[3] = tested on: itchgrass (Rottboellia cochinchinensis); experiment: Test E pre-/postemergence plant response; settings: scale 0 to 100
Description: as §1, §2

[4] = tested on: johnsongrass (Sorghum halepense); experiment: Test E pre-/postemergence plant response; settings: scale 0 to 100
Description: as §1, §2

[5] = tested on: common groundsel (Senecio vulgaris); experiment: Test E pre-/postemergence plant response
Description: as §1, §2

[6] = tested on: bermudagrass (Cynodon dactylon); experiment: Test E pre-/postemergence plant response; settings: scale 0 to 100
Description: as §1, §2

[7] = tested on: dallisgrass (Paspalum dilatatum); experiment: Test E pre-/postemergence plant response; settings: scale 0 to 100
Description: as §1, §2

[8] = tested on: winter barley (Hordeum vulgare); experiment: Test C pre-/postemergence plant response; settings: Preemergence
Summary of the method: (§3)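 Both preemergence (to planted seed) and postemergence (to plants 2–18 cm high, 1- to 4-leaf) applications used test chemicals in a non-phytotoxic solvent mixture containing surfactant. Evaluation: visual comparison with controls after 15 to 25 days; 0 means no effect, 100 complete control.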

canola (Brassica rapa) = experiment: Test C pre-/postemergence plant response; settings: Preemergence
Summary of the method: as §3

[9] = 8 g ai/ha, scale 0 to 100 (0 no effect, 100 complete control)
[10] = 16 g ai/ha, scale 0 to 100 (0 no effect, 100 complete control)
[11] = 31 g ai/ha, scale 0 to 100 (0 no effect, 100 complete control)
[12] = 62 g ai/ha, scale 0 to 100, 0 no effect, 100 complete control

Compound: CCc1cc(-c2ccc(Cl)cc2)nn1-c1c(O)cnn(C)c1=O [Compound 21]
- Plant response rating, Goosegrass ([1]; 8 g ai/ha, Preemergence): 95
- Plant response rating, Goosegrass ([1]; 16 g ai/ha, Preemergence): 100
- Plant response rating, Goosegrass ([1]; 31 g ai/ha, Preemergence): 100
- Plant response rating, Goosegrass ([1]; 62 g ai/ha, Preemergence): 100
- Plant response rating, Goosegrass ([1]; Postemergence, 8 g ai/ha): 75
- Plant response rating, Goosegrass ([1]; Postemergence, 16 g ai/ha): 80
- Plant response rating, Goosegrass ([1]; Postemergence, 31 g ai/ha): 90
- Plant response rating, Goosegrass ([1]; Postemergence, 62 g ai/ha): 98
- Plant response rating, Bluegrass ([2]; 8 g ai/ha, Preemergence): 0
- Plant response rating, Bluegrass ([2]; 16 g ai/ha, Preemergence): 0
- Plant response rating, Bluegrass ([2]; 31 g ai/ha, Preemergence): 0
- Plant response rating, Bluegrass ([2]; 62 g ai/ha, Preemergence): 0
- Plant response rating, Bluegrass ([2]; Postemergence, 8 g ai/ha): 0
- Plant response rating, Bluegrass ([2]; Postemergence, 16 g ai/ha): 0
- Plant response rating, Bluegrass ([2]; Postemergence, 31 g ai/ha): 10
- Plant response rating, Bluegrass ([2]; Postemergence, 62 g ai/ha): 15
- Plant response rating, Itchgrass ([3]; 16 g ai/ha, Preemergence): 65
- Plant response rating, Itchgrass ([3]; 31 g ai/ha, Preemergence): 75
- Plant response rating, Itchgrass ([3]; 62 g ai/ha, Preemergence): 80
- Plant response rating, Itchgrass ([3]; Postemergence, 8 g ai/ha): 50
- Plant response rating, Itchgrass ([3]; Postemergence, 16 g ai/ha): 65
- Plant response rating, Itchgrass ([3]; Postemergence, 31 g ai/ha): 75
- Plant response rating, Itchgrass ([3]; Postemergence, 62 g ai/ha): 75
- Plant response rating, Johnsongrass ([4]; 16 g ai/ha, Preemergence): 75
- Plant response rating, Johnsongrass ([4]; 31 g ai/ha, Preemergence): 90
- Plant response rating, Johnsongrass ([4]; 62 g ai/ha, Preemergence): 95
- Plant response rating, Johnsongrass ([4]; Postemergence, 8 g ai/ha): 50
- Plant response rating, Johnsongrass ([4]; Postemergence, 16 g ai/ha): 65
- Plant response rating, Johnsongrass ([4]; Postemergence, 31 g ai/ha): 85
- Plant response rating, Johnsongrass ([4]; Postemergence, 62 g ai/ha): 100
- Plant response rating, Groundsel ([5]; Postemergence, 8 g ai/ha, scale 0 to 100): 0
- Plant response rating, Groundsel ([5]; Postemergence, 62 g ai/ha; scale 0 to 100): 0
- Plant response rating, Bermudagrass ([6]; 8 g ai/ha, Preemergence): 40
- Plant response rating, Bermudagrass ([6]; 16 g ai/ha, Preemergence): 90
- Plant response rating, Bermudagrass ([6]; 31 g ai/ha, Preemergence): 95
- Plant response rating, Bermudagrass ([6]; 62 g ai/ha, Preemergence): 100
- Plant response rating, Bermudagrass ([6]; Postemergence, 8 g ai/ha): 40
- Plant response rating, Bermudagrass ([6]; Postemergence, 16 g ai/ha): 50
- Plant response rating, Bermudagrass ([6]; Postemergence, 31 g ai/ha): 65
- Plant response rating, Bermudagrass ([6]; Postemergence, 62 g ai/ha): 75
- Plant response rating, Dallisgrass ([7]; 8 g ai/ha, Preemergence): 80
- Plant response rating, Dallisgrass ([7]; 16 g ai/ha, Preemergence): 100
- Plant response rating, Dallisgrass ([7]; 31 g ai/ha, Preemergence): 100
- Plant response rating, Dallisgrass ([7]; 62 g ai/ha, Preemergence): 100
- Plant response rating, Dallisgrass ([7]; Postemergence, 8 g ai/ha): 75
- Plant response rating, Dallisgrass ([7]; Postemergence, 16 g ai/ha): 80
- Plant response rating, Dallisgrass ([7]; Postemergence, 31 g ai/ha): 85
- Plant response rating, Dallisgrass ([7]; Postemergence, 62 g ai/ha): 98
- Plant response rating, Barley, Winter [8, 9]: 20
- Plant response rating, Barley, Winter [8, 10]: 40
- Plant response rating, Barley, Winter [8, 11]: 50
- Plant response rating, Barley, Winter [8, 12]: 75
- Plant response rating, Canola (canola (Brassica rapa); [9]): 0
- Plant response rating, Canola (canola (Brassica rapa); [10]): 0
- Plant response rating, Canola (canola (Brassica rapa); [11]): 0
- Plant response rating, Canola (canola (Brassica rapa); [12]): 0

Compound: Cc1cc(-c2ccc(Cl)cc2)nn1-c1c(OC(=O)Oc2ccccc2)cnn(C)c1=O [Compound 54]
- Plant response rating, Goosegrass ([1]; 8 g ai/ha, Postemergence): 0
- Plant response rating, Goosegrass ([1]; Postemergence, 16 g ai/ha): 0
- Plant response rating, Goosegrass ([1]; Postemergence, 31 g ai/ha): 50
- Plant response rating, Goosegrass ([1]; Postemergence, 62 g ai/ha): 95
- Plant response rating, Bluegrass ([2]; 8 g ai/ha, Postemergence): 0
- Plant response rating, Bluegrass ([2]; Postemergence, 16 g ai/ha): 0
- Plant response rating, Bluegrass ([2]; Postemergence, 31 g ai/ha): 0
- Plant response rating, Bluegrass ([2]; Postemergence, 62 g ai/ha): 0
- Plant response rating, Itchgrass ([3]; 8 g ai/ha, Postemergence): 10
- Plant response rating, Itchgrass ([3]; Postemergence, 16 g ai/ha): 90
- Plant response rating, Itchgrass ([3]; Postemergence, 31 g ai/ha): 95
- Plant response rating, Itchgrass ([3]; Postemergence, 62 g ai/ha): 100
- Plant response rating, Johnsongrass ([4]; 8 g ai/ha, Postemergence): 20
- Plant response rating, Johnsongrass ([4]; Postemergence, 16 g ai/ha): 60
- Plant response rating, Johnsongrass ([4]; Postemergence, 31 g ai/ha): 100
- Plant response rating, Johnsongrass ([4]; Postemergence, 62 g ai/ha): 100
- Plant response rating, Groundsel ([5]; 8 g ai/ha, Postemergence, scale 0 to 100): 0
- Plant response rating, Groundsel ([5]; Postemergence, 16 g ai/ha; scale 0 to 100): 0
- Plant response rating, Groundsel ([5]; Postemergence, 31 g ai/ha; scale 0 to 100): 0
- Plant response rating, Bermudagrass ([6]; Postemergence, 8 g ai/ha): 10
- Plant response rating, Bermudagrass ([6]; Postemergence, 16 g ai/ha): 20
- Plant response rating, Bermudagrass ([6]; Postemergence, 31 g ai/ha): 40
- Plant response rating, Bermudagrass ([6]; Postemergence, 62 g ai/ha): 80
- Plant response rating, Dallisgrass ([7]; 8 g ai/ha, Postemergence): 20
- Plant response rating, Dallisgrass ([7]; Postemergence, 16 g ai/ha): 30
- Plant response rating, Dallisgrass ([7]; Postemergence, 31 g ai/ha): 40
- Plant response rating, Dallisgrass ([7]; Postemergence, 62 g ai/ha): 80
- Plant response rating, Barley, Winter [8, 9]: 0
- Plant response rating, Barley, Winter [8, 10]: 10
- Plant response rating, Barley, Winter [8, 11]: 15
- Plant response rating, Barley, Winter [8, 12]: 75
